Measured values reported in patent publication EP4624482A1, “PYRIMIDOPYRIMIDINONE COMPOUND AND PHARMACEUTICAL COMPOSITION COMPRISING SAME” (Axceso Biopharma Co., Ltd., priority 2022, dated 2024).

Key:
[1] = system: tyrosine hydroxylase (TH); assay: TH expression in rotenone-treated differentiated SH-SY5Y dopaminergic neurons, western blot; format: cell-based, human
Experimental: (§1) To analyze the effect on the expression of tyrosine hydroxylase (TH) and α-synuclein as neuron-specific proteins, western blot was performed.
(§2) SH-SY5Y cell line was treated with retinoic acid and 12-O-tetradecanoylphorbol-13-acetate (TPA) to induce differentiation into TH-secreting neurons for 6 days.
(§3) Differentiated dopaminergic neurons were lysed in PRO-PREP (Intronbio), a cell lysis solution containing protease inhibitor cocktail (Gendepot), and electrophoresed in 10% SDS polyacrylamide gels at 20 µg/well. Transfer was performed using PVDF (Merck millipore) as a membrane, and tyrosine hydroxylase antibody, α-synuclein antibody (Cell signaling), and β-actin antibody (Santa Cruz) were used for reaction for more than 2 hours. Protein expression was detected by staining with ECL substrate (Biorad) for development and graphed using the image J program.

IL-6 = assay: Serum IL-6 after CLP treatment, ELISA; format: in vivo, mouse; conditions: treated at 6 and 16 hours after CLP, serum at 18 hours
Experimental: (§4) After CLP treatment, the inflammatory cytokines TNF-α and IL-6 were analyzed by ELISA.
(§5) Specifically, after treating the compound of formula (1a-1) at 6 and 16 hours after CLP treatment, mouse blood was collected at 18 hours and allowed to stand at room temperature for 1 hour, then centrifuged at 3000 rpm for 10 minutes to obtain serum to analyze the amount of TNF-α and IL-6.

TNF-α = assay: Serum TNF-α after CLP treatment, ELISA; format: in vivo, mouse; conditions: treated at 6 and 16 hours after CLP, serum at 18 hours
Experimental: as §4, §5

C57BL/6 mice = assay: Survival in sepsis induced by cecal ligation and puncture (CLP); format: in vivo; conditions: 100 ng/mouse (5 µg/kg) intravenously at 6 and 16 hours after CLP
Experimental: C57BL/6 mice aged 7-8 weeks were purchased from Jabio (Suwon, Gyeonggi-do) and sepsis was induced by cecal ligation and puncture (CLP).
Specifically, after anesthesia using 150 mg/kg of ketamine and 17.5 mg/kg of rompun, an abdominal incision of 1-2 cm was made to expose the cecum to induce sepsis. The cecum was ligated with 6-0 silk sutures at the distal end of the ileocecal valve, and a puncture was made with an 18-gauge needle. The perforated cecum was gently squeezed to push out 1-2 cm of feces, and the cecum was then retracted back into the abdominal cavity. The abdomen was then closed and pre-warmed normal saline (2.5 mL/100 g body weight) was injected into the mouse abdominal cavity immediately after the procedure. 6 and 16 hours after CLP treatment, the compound of formula (1a-1) was dissolved in phosphate buffered saline (PBS) and injected intravenously at 100 ng/mouse (5 µg/kg), and survival was examined for 10 days. […] In addition, as a drug-negative control, survival was examined in mice that received only PBS after CLP treatment.
For comparison, we also examined the survival of a control group treated with fingolimod (FTY720), a known S1P modulator, instead of the compound of formula (1a-1) under the same conditions.

SH-SY5Y cell lines = assay: Proliferation of SH-SY5Y cells (Parkinson's disease cell model), EZ-cytox; format: cell-based, human; conditions: 5 days
Experimental: A medium containing DMEM/F12 (Hyclone), 10% FBS (Hyclone), and 1% penicillin-streptomycin (Hyclone) was used, and the medium was replaced every two days after seeding on a T75 plate. Subculture was performed when the cell density was 80-90%.
Then, to determine the neuronal proliferation effect, the subcultured SH-SY5Y cells were seeded in 96 wells at 5 × 10^3 cells/well. After 1 day, the medium was replaced with a 5% FBS ratio, and the cells were treated with the compound of formula (1a-1) at concentrations serially diluted 2-fold from 500 nM to 15.6 nM and cultured for 5 days. The medium was replaced with 10% FBS containing the drug every other day. The culture medium with 10% FBS was used as a control. After 5 days, the amount of living cells was measured at 450 nm absorbance using EZ-cytox (DoGen) to compare the cell viability.

[2] = system: amyloid beta monomer (monomeric Aβ, mAβ); assay: mAβ expression in mouse brain of AD-induced animal model, fluorescence microscopy; format: in vivo, mice; conditions: 1 mg/kg intraperitoneally once every 3 days for 2 weeks; brain sections at 1 week and 4 weeks after drug administration
Experimental: To determine the therapeutic effect on Alzheimer's Disease (AD), the effects on amyloid beta monomer (monomeric Aβ, mAβ) and Tau protein, which are biomarkers of AD, were analyzed in an AD-induced animal model.
APP/PS/Tau transgenic mice were used as an AD-induced animal model. The compound of formula (1a-1) was administered intraperitoneally once every 3 days at a concentration of 1 mg/kg to 12-week-old transgenic mice for 2 weeks, and the expression of mAβ and Tau proteins in the mouse brain was measured after 1 and 4 weeks. After anesthetizing the mouse, the cervical region was incised with a dissecting tool, and then the occipital region was incised to remove both sides of the skull. The brain was washed with phosphate buffered saline (PBS) and fixed with 4% paraformaldehyde (Sigma, St Louis, MO, USA) for 12 hours at 4°C. These were cut to a thickness of approximately 10 µm using a vibratome, and hippocampus and cortex sections were collected and placed in 24 wells. PBS was added to the wells containing the fixed tissue sections, and fluorescent nanoparticles (QD565, red fluorescence) conjugated with anti-amyloid antibodies and anti-Tau antibodies (Santa Cruz, USA) were added to each 2 µM, and reacted at 4°C for 12 hours. The expression of mAβ and Tau was confirmed by fluorescence microscopy.

α-synuclein = α-synuclein expression in rotenone-treated differentiated SH-SY5Y dopaminergic neurons, western blot; format: cell-based, human; conditions: differentiated dopaminergic neurons treated with rotenone
Experimental: as §1, §2, §3

SIRT1 = SIRT1 expression in HUVECs by western blot; format: cell-based, human; conditions: 24 hours
Experimental: To determine the increase in SIRT1 expression by the compound of formula (1a-1) prepared in Example 1 above in human umbilical vein endothelial cells (HUVECs), HUVECs were seeded at 5 × 10^5/4 ml in a 60 mm cell culture dish using ECBM2 medium (Promocell) and stabilized for 12 hours in an incubator maintained at 37°C and 5% CO2, respectively.
The cells were then treated with 10 nM, 100 nM and 1000 nM of the compound of formula (1a-1) prepared in Example 1 above, respectively, and incubated for another 24 hours, and then SIRT1 expression was determined by western blot.

CCCCCCCCCCCCCC[C@H]1OP(=O)(O)O[C@H]1[C@@H](N)CO.Cl [formula (1a-1), (4S,5R)-4-((S)-1-amino-2-hydroxyethyl)-2-hydroxy-5-tetradecyl-1,3,2-dioxaphosphoran-2-oxide hydrochloride]
effectiveness on TH and α-synuclein expression compared with control drug [1]: more effective than resveratrol
expression of TH decreased by rotenone ([1]; differentiated dopaminergic neurons treated with rotenone): restored
amount of inflammatory cytokine IL-6 (IL-6): significantly decreased
amount of inflammatory cytokine TNF-α (TNF-α): significantly decreased
deaths after 10 days (C57BL/6 mice): no deaths
survival (C57BL/6 mice; for 10 days): more than 80%
proliferation of nerve cells (SH-SY5Y cell lines; 15.6 nM to 500 nM): increases with increasing concentrations
concentration of maximum proliferative potency (SH-SY5Y cell lines): ~100 nM
red fluorescence for mAβ [2]: negligible
expression of α-synuclein increased by rotenone (α-synuclein): decreased
expression of SIRT1 (SIRT1; 10 nM): increases
EC50 (SIRT1; read-out: concentration (EC50) that increased the expression of SIRT1 by 50%): ~10 nM
